# In patent publication US11203601B2, “Tricyclic compounds as glycogen synthase kinase 3 (GSK3) inhibitors and uses thereof” (The Broad Institute, Inc., priority 2017, dated 2021):
# Read-outs that look alike come from different tables or passages of the source.
# Legend:
# [1] = biological target: T1, GSK3β (Homo sapiens (Human), UniProt P49841); assay: GSK3 beta biochemical assay (TR-FRET)
# Protocol: (§6) 1 nM enzyme, 200 nM biotinylated peptide
# (§7) 4 μM ATP (GSK3 alpha) or 2 μM ATP (GSK3 beta)
# (§8) The reaction volume is 10 μL, and the final percent DMSO is 1%. The total volume of DMSO is therefore 100 nL. It is critical that the percentage of DMSO be controlled and consistent across the plate. […] The High control is with all assay components but no inhibitor, the low control is with all assay components but no enzyme.
# (§9) Make 2× detection reagents in Invitrogen TR-FRET detection buffer for final 20 nM Strepavidin-d2, 1 nM Tb^2+-pSer641 antibody (using 20 μl as final volume). 2× detection=40 nM Strepavidin-d2, 2 nM Tb^2+-pSer641 antibody.
# (§10) XLFit is used for results which are archived into a database. The data is normalized as a percentage of uninhibited control minus max inhibited controls.
# [2] = biological target: T2, GSK3α (Homo sapiens (Human), UniProt P49840); assay: GSK3 alpha biochemical assay (TR-FRET)
# T2 sequence (P49840 whole entry): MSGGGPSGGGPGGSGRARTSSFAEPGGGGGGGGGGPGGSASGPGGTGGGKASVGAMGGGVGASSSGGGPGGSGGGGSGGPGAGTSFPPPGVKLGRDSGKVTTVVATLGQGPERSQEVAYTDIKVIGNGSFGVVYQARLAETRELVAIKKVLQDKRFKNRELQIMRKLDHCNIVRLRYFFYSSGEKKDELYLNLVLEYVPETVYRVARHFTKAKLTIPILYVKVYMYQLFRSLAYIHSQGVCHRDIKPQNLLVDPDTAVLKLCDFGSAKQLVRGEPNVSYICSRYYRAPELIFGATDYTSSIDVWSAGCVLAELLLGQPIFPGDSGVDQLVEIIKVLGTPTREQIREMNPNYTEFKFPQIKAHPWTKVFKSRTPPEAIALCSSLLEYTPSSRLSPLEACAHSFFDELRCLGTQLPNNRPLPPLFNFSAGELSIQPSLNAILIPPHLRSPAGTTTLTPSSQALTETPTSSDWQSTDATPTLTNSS
# Protocol: as §6, §7, §8, §9, §10
# [3] = biological target: T1, GSK3β; assay: Mobility shift microfluidics assay; assay type: biochemical; conditions: 4.3 μM ATP, 60 minutes at room temperature
# Protocol: (§11) Reactions were terminated by the addition of 10 mM ethylenediaminetetraacetic acid (EDTA). Substrate and product were separated electrophoretically, and fluorescence intensity of the substrate and product was determined by Labchip EZ Reader II (Caliper Life Sciences). The kinase activity was measured as percent conversion. The reactions were performed in duplicate for each sample. […] The results were analyzed by Genedata Assay Analyzer. The percent inhibition was plotted against the compound concentration, and the IC50 value was determined from the logistic dose-response curve fitting. Values are the average of at least three experiments.
# [4] = biological target: T2, GSK3α; assay: Mobility shift microfluidics assay; assay type: biochemical
# Protocol: as §11
# [5] = system: MDR1; assay: MDR1/MDCK assay (Example 4); assay type: in vitro ADME; conditions: dog, MDCK-MDR1; for Papp A→B at 120 min, 5 μM / Papp B→A at 120 min, 5 μM: pH 7.4, 120 minutes; for efflux ratio at 120 min, 5 μM: (Papp B to A)/(Papp A to B)
# Protocol: The MDR1/MDCK assay is run at Absorption Systems. This assay is used to determine the blood-brain barrier (BBB) penetration potential of a test compound using MDR1-MDCK cell monolayers. Catalog number EA203.
# Substrate • Test compound at 5 μM in HBSSg with maximum DMSO concentration not greater than 1%. Assay System • Confluent monolayers of MDR1-MDCK cells, 7 to 11 days old. Assay Conditions • Receiver well with 1% BSA in modified Hanks buffer (HBSSg) • Apical and basolateral side at pH 7.4 • Dose two monolayers in each direction (N=2) • Dose apical side for (A to B) assessment • Dose basolateral side for (B to A) assessment • Sample both apical and basolateral sides at 120 minutes • Determine the concentrations of test compound using a generic LC-MS/MS method with a minimum 4 point calibration curve. Assay QC • The quality of the cell monolayer batch is verified using control compounds before monolayers are released for use • The quality of each monolayer used in the assay is verified by a TEER measurement and by calculating the Papp for a control compound. Solubility (SOL) 1% DMSO in PBS
# [6] = Solubility in PBS; conditions: 23 °C, aqueous buffer, thermodynamic from solid
# Protocol: Solubility of compound was tested in triplicate by diluting a 10 mM DMSO solution with PBS. Maximum concentration of compound in solution was 100 μM.
# Solubility of compound was tested in triplicate by drying down a 10 mM DMSO solution and then attempting to reconstitute in 100% PBS. Maximum concentration of compound in solution was 500 μM.
# Compound requirements (1% DMSO in PBS): 30 μL of a 10 mM DMSO solution. Compound requirements (PBS-only): 60 μL of a 10 mM DMSO solution. Equilibration time: 18 hours at room temperature.
# [7] = Liver microsomal stability, mouse; assay type: in vitro ADME, mouse (CD-1); conditions: 1 μM, 60 minutes at 37° C.
# Protocol: (§1) Stability of compound in liver microsomes was tested in duplicate by incubating compound at 1 μM for 60 minutes at 37° C. Compound level at 60 minutes was compared to level at 0 minutes, and percent remaining was calculated. Order by selecting Microsomal Stability in Prometheus, checking boxes for desired species.
# (§2) Available species: human, mouse (CD-1), and rat (Sprague-Dawley). Compound requirements: 5 μL of a 10 mM DMSO solution. Incubation time: 60 minutes at 37° C. Test Concentration: 1 μM.
# (§3) Microsomes with NADPH without compound-matrix interference. Microsomes plus compound without NADPH-non-enzymatic instability.
# [8] = Plasma stability, mouse; assay type: in vitro ADME, mouse (CD-1)
# Protocol: (§4) Stability of compound in plasma was tested in duplicate by incubating compound at 5 μM for 5 hours at 37° C. Compound level at 5 hours was compared to level at 0 hours, and percent remaining was calculated. Binding to plasma proteins was tested in duplicate by incubating compound in plasma at 5 μM for 5 hours at 37° C. in the Rapid Equilibrium Dialysis (RED) Device. Compound level in plasma compartment was compared to compound level in buffer compartment to calculate percent bound. Order by selecting Plasma Stability and Plasma Protein Binding in Prometheus, checking boxes for desired species.
# (§5) Available species: human, mouse (CD-1), and rat (Sprague-Dawley). Compound requirements: 15 μL of a 10 mM DMSO solution. Incubation time: 5 hours at 37° C. Test Concentration: 5 μM.
# [9] = Plasma protein binding (RED), human; assay type: in vitro ADME; conditions: 5 hours at 37° C., read-out: Plasma Protein Binding (Human, % bound) (converted)
# Protocol: as §4, §5
# [10] = Plasma stability, human; assay type: in vitro ADME; conditions: human plasma, 5 μM, 5 hours at 37° C.
# Protocol: as §4, §5
# [11] = Plasma protein binding (RED), mouse; assay type: in vitro ADME, mouse (CD-1); conditions: CD-1, 5 hours at 37° C., read-out: Plasma Protein Binding (Mouse, % bound) (converted)
# [12] = Liver microsomal stability, human; assay type: in vitro ADME; conditions: 1 μM, 60 minutes at 37° C.
# Protocol: as §1, §2, §3
# [13] = GSK3β TR-FRET BIOCHEMICAL (TR-FRET) GMean IC50, 2 μM ATP (Km), 100 min at room temperature
# [14] = GSK3α TR-FRET BIOCHEMICAL (TR-FRET) GMean IC50, 4 μM ATP (Km), 100 min at room temperature
# [15] = mouse plasma, 5 μM, 5 hours at 37° C.
# T1 sequence (P49841 whole entry): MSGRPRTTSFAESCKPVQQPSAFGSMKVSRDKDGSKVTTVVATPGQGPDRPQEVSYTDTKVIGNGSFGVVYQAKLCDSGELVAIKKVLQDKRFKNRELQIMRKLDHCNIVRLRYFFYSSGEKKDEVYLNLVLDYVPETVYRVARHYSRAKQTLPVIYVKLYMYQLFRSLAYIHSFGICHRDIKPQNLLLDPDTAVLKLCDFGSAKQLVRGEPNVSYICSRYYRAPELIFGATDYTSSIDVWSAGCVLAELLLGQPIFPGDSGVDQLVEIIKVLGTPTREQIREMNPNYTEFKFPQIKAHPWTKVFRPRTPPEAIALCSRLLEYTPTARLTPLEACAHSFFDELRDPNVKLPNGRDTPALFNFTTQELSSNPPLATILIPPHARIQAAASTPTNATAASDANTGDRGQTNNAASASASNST
IC50 [1],IC50 [2],SMILES,IC50 [3],IC50 [4],also measured
–,–,[2H]c1nc2c(s1)C(CC)(c1ccccc1)C1=C(CC(C)(C)CC1=O)N2 (stereo not drawn) [Compound 18],–,–,"IC50 [1, 13]: 500 nM; IC50 [2, 14]: 118 nM"
–,–,CC[C@]1(c2ccccc2)C2=C(CC(C)(C)CC2=O)Nc2ncsc21,> 30000 nM,> 30000 nM,–
–,–,CC1(C)CC(=O)C2=C(C1)Nc1ncsc1[C@@]2(C)c1cccc(F)c1,12500 nM,6230 nM,–
366 nM,80 nM,CCC1(c2ccccc2)C2=C(CC3(CCCC3)CC2=O)Nc2ncsc21 (stereo not drawn) [Compound 5],–,–,–
–,–,CC[C@@]1(c2ccccc2)C2=C(CC(C)(C)CC2=O)Nc2n[nH]cc21 [drawing 184],–,–,"Papp A→B at 120 min, 5 μM [5]: 1.26 ×10⁻⁶ cm/s; Papp B→A at 120 min, 5 μM [5]: 57.7 ×10⁻⁶ cm/s"
927 nM,365 nM,CCC1(c2ccccc2)C2=C(CC(C(C)C)CC2=O)Nc2ncsc21 (stereo not drawn) [Compound 8],–,–,–
–,–,"CC[C@]1(c2cccc(F)c2)C2=C(CC(C)(C)CC2=O)Nc2ncsc21 (single isomer, unassigned)",> 30000 nM,> 30000 nM,–
234 nM,41 nM,CCC1(c2cccc(Br)c2)C2=C(CC(C)(C)CC2=O)Nc2ncsc21 (stereo not drawn) [Compound 14],–,–,–
–,–,CC1(C)CC(=O)C2=C(C1)Nc1ncsc1[C@]2(C)c1ccccc1 [drawing 172],–,–,"solubility thermodynamic at 18 h [6]: 34 µM; Mouse Liver Microsomal Stability, % remaining [7]: 0.7%; Plasma Stability (Mouse, % remaining) [8, 15]: 100%; fraction unbound at 5 h, 5 μM [9]: 0.005; Plasma Stability (Human, % remaining) [10]: 100%; fraction unbound at 5 h, 5 μM [11]: 0.004; Human Liver Microsomal Stability, % remaining [12]: 17.7%"
> 1670 nM,419 nM,CCC1(c2ccccc2)C2=C(CCCC2=O)Nc2ncsc21 (stereo not drawn) [Compound 11],–,–,–
592 nM,171 nM,CCC1CC(=O)C2=C(C1)Nc1ncsc1C2(CC)c1ccccc1 (stereo not drawn) [Compound 7],–,–,–
–,–,CC1(C)CC(=O)C2=C(C1)Nc1ncsc1[C@]2(C)c1ccccc1 [drawing 153],384 nM,238 nM,–
–,–,CC1(C)CC(=O)C2=C(C1)Nc1n[nH]cc1[C@]2(C)c1ccccc1 [drawing 178],–,–,"solubility thermodynamic at 18 h [6]: > 500 µM; Mouse Liver Microsomal Stability, % remaining [7]: 100%; Plasma Stability (Mouse, % remaining) [8]: 96.6%; Plasma Stability (Human, % remaining) [10]: 100%; Human Liver Microsomal Stability, % remaining [12]: 100%"
–,–,CC[C@@]1(c2cccc(C)c2)C2=C(CC(C)(C)CC2=O)Nc2ncsc21 [drawing 163],245 nM,69 nM,–
–,–,CC[C@@]1(c2ccccc2)C2=C(CC(C)(C)CC2=O)Nc2ncsc21 [drawing 157],65 nM,14 nM,–
–,–,"CC[C@@]1(c2cccc(Cl)c2)C2=C(CC(C)(C)CC2=O)Nc2ncsc21 (single isomer, unassigned)",1180 nM,293 nM,–
–,–,"CCC1(c2ccccc2)C2=C(CC(C)(C)CC2=O)Nc2ncsc21 (single isomer, unassigned) [Compound 1-E1, 9-Ethyl-6,6-dimethyl-9-phenyl-5,6,7,9-tetrahydrothiazolo[4,5-b]quinolin-8(4H)-one]",–,–,"IC50 [1, 13]: > 5000 nM; IC50 [2, 14]: > 5000 nM"
> 5000 nM,> 5000 nM,CC1(C)CC(=O)C2=C(C1)Nc1ncsc1C21CCCc2ccccc21 (stereo not drawn) [Compound 16],–,–,–
684 nM,194 nM,CCC1(c2ccccc2)C2=C(CC(C)CC2=O)Nc2ncsc21 (stereo not drawn) [Compound 6],–,–,–
–,–,CC[C@@]1(c2cccc(C)c2)C2=C(CC(C)(C)CC2=O)Nc2ncsc21 [drawing 176],–,–,"solubility thermodynamic at 18 h [6]: 75 µM; Mouse Liver Microsomal Stability, % remaining [7]: 8.2%; Plasma Stability (Mouse, % remaining) [8, 15]: 97.8%; fraction unbound at 5 h, 5 μM [9]: 0.019; Plasma Stability (Human, % remaining) [10]: 98.9%; fraction unbound at 5 h, 5 μM [11]: 0.045; Human Liver Microsomal Stability, % remaining [12]: 0.7%"
–,–,CC1(C)CC(=O)C2=C(C1)Nc1n[nH]cc1[C@]2(C)c1ccccc1 [drawing 183],–,–,"Papp A→B at 120 min, 5 μM [5]: 1.82 ×10⁻⁶ cm/s; Papp B→A at 120 min, 5 μM [5]: 66.1 ×10⁻⁶ cm/s"
–,–,"CC[C@]1(c2cccc(Cl)c2)C2=C(CC(C)(C)CC2=O)Nc2ncsc21 (single isomer, unassigned)",> 30000 nM,> 30000 nM,–

IC50 [1],IC50 [2],SMILES,IC50 [3],IC50 [4],also measured
–,–,CC[C@@]1(c2cccc(OC)c2)C2=C(CC(C)(C)CC2=O)Nc2ncsc21,–,–,"solubility thermodynamic at 18 h [6]: 153 µM; Mouse Liver Microsomal Stability, % remaining [7]: 10.8%; Plasma Stability (Mouse, % remaining) [8, 15]: 97.0%; fraction unbound at 5 h, 5 μM [9]: 0.025; Plasma Stability (Human, % remaining) [10]: 98.3%; fraction unbound at 5 h, 5 μM [11]: 0.077; Human Liver Microsomal Stability, % remaining [12]: 1.6%"
–,–,Cc1c[nH]c(-c2cnc(NCCNc3ccc(C#N)cn3)nc2-c2ccc(Cl)cc2Cl)n1 [drawing 185],–,–,"Papp A→B at 120 min, 5 μM [5]: 6.5 ×10⁻⁶ cm/s; Papp B→A at 120 min, 5 μM [5]: 64.2 ×10⁻⁶ cm/s"
4350 nM,1990 nM,CCC1(c2ccccc2)C2=C(CC(C)(C)CC2=O)Nc2nc(Cl)sc21 (stereo not drawn) [Compound 19],–,–,–
–,–,CC[C@]1(c2ccccc2)C2=C(CC3(CCCCC3)CC2=O)Nc2ncsc21,1890 nM,3660 nM,–
951 nM,254 nM,CCC1(c2ccccc2)C2=C(CCC(C)(C)C2=O)Nc2ncsc21 (stereo not drawn) [Compound 3],–,–,–
644 nM,189 nM,CCC1(c2ccccc2)C2=C(CC(CC(C)C)CC2=O)Nc2ncsc21 (stereo not drawn) [Compound 10],–,–,–
353 nM,130 nM,CCC1(c2ccccc2)C2=C(Nc3ncsc31)C(C)CC(C)C2=O (stereo not drawn) [Compound 2],–,–,–
–,–,CC[C@]1(c2cccc(OC)c2)C2=C(CC(C)(C)CC2=O)Nc2ncsc21,10500 nM,10600 nM,–
619 nM,187 nM,CCC1(c2ccc(C)cc2)C2=C(CC(C)(C)CC2=O)Nc2ncsc21 (stereo not drawn) [Compound 13],–,–,–
–,–,CC1(C)CC(=O)C2=C(C1)Nc1ncsc1[C@]2(C)c1ccccc1 [drawing 181],–,–,"Papp A→B at 120 min, 5 μM [5]: 28.4 ×10⁻⁶ cm/s; Papp B→A at 120 min, 5 μM [5]: 62.8 ×10⁻⁶ cm/s; efflux ratio at 120 min, 5 μM [5]: 2.2"
627 nM,174 nM,CCC1(c2ccccc2)C2=C(Nc3ncsc31)C(C)(C)CCC2=O (stereo not drawn) [Compound 4],–,–,–
–,–,"CC[C@@]1(c2cccc(OC)c2)C2=C(CC(C)(C)CC2=O)Nc2ncsc21 (single isomer, unassigned)",110 nM,24 nM,–
–,–,CC[C@@]1(c2cccc(F)c2)C2=C(CC(C)(C)CC2=O)Nc2ncsc21 [drawing 159],2270 nM,599 nM,–
–,–,CC1(C)CC(=O)C2=C(C1)Nc1ncsc1[C@]2(C)c1cccc(F)c1,455 nM,203 nM,–
> 5000 nM,> 5000 nM,CCC1(c2ccccc2)C2=C(CC(C)(C)CC2=O)Nc2nc(C)sc21 (stereo not drawn) [Compound 15],–,–,–
–,–,CC[C@@]1(c2ccccc2)C2=C(CC3(CCCCC3)CC2=O)Nc2ncsc21,447 nM,155 nM,–
–,–,CC[C@@]1(c2ccccc2)C2=C(CC(C)(C)CC2=O)Nc2ncsc21 [drawing 182],–,–,"Papp A→B at 120 min, 5 μM [5]: 24.2 ×10⁻⁶ cm/s; Papp B→A at 120 min, 5 μM [5]: 62.1 ×10⁻⁶ cm/s; efflux ratio at 120 min, 5 μM [5]: 2.6"
–,–,CC[C@@]1(c2ccccc2)C2=C(CC(C)(C)CC2=O)Nc2n[nH]cc21 [drawing 170],507 nM,–,–
> 5000 nM,> 5000 nM,CC1(C)CC(=O)C2=C(C1)Nc1ncsc1C21CCCCc2ccccc21 (stereo not drawn) [Compound 17],–,–,–
–,–,CC1(C)CC(=O)C2=C(C1)Nc1ncsc1[C@@]2(C)c1ccccc1,28600 nM,18500 nM,–
418 nM,184 nM,CCCC1CC(=O)C2=C(C1)Nc1ncsc1C2(CC)c1ccccc1 (stereo not drawn) [Compound 9],–,–,–
